Reference: patent US10738028B2, “Spiro three-membered ring, spiro five-membered ring peptide deformylase inhibitor and use thereof in antibacteria and anti-tumor” (priority 2016, dated 2020)
Read-outs that look alike come from different tables or passages of the source.

Tests used:
Type in all cases: cell-based
[1] = test system: Moraxella catarrhalis (BCA); test: MIC, two-fold agar dilution (CLSI), clinical isolates
Procedure, shortened: (§1)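 Following the American Clinical and Laboratory Standards Institute procedure, agar two-fold dilution served to determine minimum inhibitory concentrations.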

[2] = test system: methicillin-sensitive Staphylococcus aureus (MSSA); test: as above
Procedure, shortened: as §1

[3] = test system: Escherichia coli (including ESBLs, non-ESBLs); test: as above
Procedure, shortened: as §1

[4] = test system: methicillin-sensitive Staphylococcus epidermidis (MSSE); test: as above
Procedure, shortened: as §1

[5] = test system: methicillin-resistant Staphylococcus epidermidis (MRSE); test: as above
Procedure, shortened: as §1

[6] = test system: methicillin-resistant Staphylococcus aureus (MRSA); test: as above
Procedure, shortened: as §1

[7] = test system: Streptococcus pneoumoniae (SPN); test: as above
Procedure, shortened: as §1

[8] = test system: Enterococcus faecium (EFM); test: as above
Procedure, shortened: as §1

[9] = test system: Enterococcus faecalis (EFA); test: as above
Procedure, shortened: as §1

[10] = test system: HCT-116 colorectal cancer cell line; test: CCK-8 proliferation inhibition; conditions: Homo sapiens, HCT-116, 72 h, concentration of 30 μM, 72 hours, CCK-8
Procedure, shortened: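 2000 cells/well, McCoy's 5A + 10% newborn bovine serum; overnight attach, 37° C./5% CO2. Cpd from DMSO stock diluted in medium, 72 h. Readout: CCK-8 (1:10). Ctrl 1‰ DMSO.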

[11] = test system: BEL-7402 liver cancer cell line; test: CCK-8 proliferation inhibition; conditions: Homo sapiens, Bel-7402, 72 h, concentration of 30 μM
Procedure, shortened: (§2)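 Plating at 2000 cells/well, then incubation overnight at 37° C. Next, a range of compound concentrations for 72 hours (control 1‰ DMSO). Finally, medium decanted and CCK-8 diluted 1:10 added.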

[12] = test system: MGC-803 gastric cancer cell line; test: CCK-8 proliferation inhibition; conditions: Homo sapiens, MGC-803, 72 h, concentration of 30 μM
Procedure, shortened: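 CCK-8 read-out after 72 h drug exposure; 2000 cells/well, overnight pre-culture (37° C, 5% CO2); vehicle 1‰ DMSO. Media: PC3 F12; MGC-803/Jurkat 1640; MCF-7 DMEM high glucose; all +10% newborn bovine serum, 1% antibiotics.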

[13] = test system: A549 lung cancer cell line; test: CCK-8 proliferation inhibition; conditions: Homo sapiens, A549, 72 h, concentration of 30 μM
Procedure, shortened: as §2

O=C(C[C@@H](CC1CCCC1)C(=O)N1CC2(CC2)C[C@H]1C(=O)Nc1ccc(N2CCOCC2)cc1)NO [Example 61]
Anti-bacterial activity (MIC), strain BCA 14-1 ([1]; clinical isolate BCA 14-1): 8 mg/L | Anti-bacterial activity (MIC), strain BCA 14-4 ([1]; clinical isolate BCA 14-4): 8 mg/L | Anti-bacterial activity (MIC), strain BCA 14-5 ([1]; clinical isolate BCA 14-5): 1 mg/L | Anti-bacterial activity (MIC), strain BCA 14-6 ([1]; clinical isolate BCA 14-6): 1 mg/L | Anti-bacterial activity (MIC), strain BCA 14-7 ([1]; clinical isolate BCA 14-7): 8 mg/L | Anti-bacterial activity (MIC), strain BCA 14-8 ([1]; clinical isolate BCA 14-8): 8 mg/L | Anti-bacterial activity (MIC), strain BCA 14-10 ([1]; clinical isolate BCA 14-10): 8 mg/L | Anti-bacterial activity (MIC), strain MSSA 15-3 ([2]; clinical isolate MSSA 15-3): 1 mg/L | Anti-bacterial activity (MIC), strain MSSA 15-4 ([2]; clinical isolate MSSA 15-4): 1 mg/L | Anti-bacterial activity (MIC), strain MSSA 15-5 ([2]; clinical isolate MSSA 15-5): > 32 mg/L | Anti-bacterial activity (MIC), strain MSSA 15-6 ([2]; clinical isolate MSSA 15-6): 1 mg/L | Anti-bacterial activity (MIC), strain ECO+ 15-1 ([3]; clinical isolate ECO+ 15-1): > 32 mg/L | Anti-bacterial activity (MIC), strain ECO+ 15-2 ([3]; clinical isolate ECO+ 15-2): > 32 mg/L | Anti-bacterial activity (MIC), strain ECO+ 15-3 ([3]; clinical isolate ECO+ 15-3): 1 mg/L | Anti-bacterial activity (MIC), strain ECO+ 15-4 ([3]; clinical isolate ECO+ 15-4): 1 mg/L | Anti-bacterial activity (MIC), strain ECO− 15-1 ([3]; clinical isolate ECO− 15-1): > 32 mg/L | Anti-bacterial activity (MIC), strain ECO− 15-2 ([3]; clinical isolate ECO− 15-2): > 32 mg/L | Anti-bacterial activity (MIC), strain ECO− 15-3 ([3]; clinical isolate ECO− 15-3): > 32 mg/L | Anti-bacterial activity (MIC), strain ECO− 15-4 ([3]; clinical isolate ECO− 15-4): > 32 mg/L | Anti-bacterial activity (MIC), strain MSSE 15-3 ([4]; clinical isolate MSSE 15-3): 1 mg/L | Anti-bacterial activity (MIC), strain MSSE 15-4 ([4]; clinical isolate MSSE 15-4): 1 mg/L | Anti-bacterial activity (MIC), strain MSSE 15-5 ([4]; clinical isolate MSSE 15-5): 1 mg/L | Anti-bacterial activity (MIC), strain MSSE 15-6 ([4]; clinical isolate MSSE 15-6): 32 mg/L | Anti-bacterial activity (MIC), strain MRSE 15-1 ([5]; clinical isolate MRSE 15-1): 1 mg/L | Anti-bacterial activity (MIC), strain MRSE 15-2 ([5]; clinical isolate MRSE 15-2): 1 mg/L | Anti-bacterial activity (MIC), strain MRSE 15-3 ([5]; clinical isolate MRSE 15-3): 1 mg/L | Anti-bacterial activity (MIC), strain MRSE 15-7 ([5]; clinical isolate MRSE 15-7): 1 mg/L | Anti-bacterial activity (MIC), strain MRSA 15-1 ([6]; clinical isolate MRSA 15-1): 1 mg/L | Anti-bacterial activity (MIC), strain MRSA 15-2 ([6]; clinical isolate MRSA 15-2): 1 mg/L | Anti-bacterial activity (MIC), strain MRSA 15-3 ([6]; clinical isolate MRSA 15-3): 1 mg/L | Anti-bacterial activity (MIC), strain MRSA 15-4 ([6]; clinical isolate MRSA 15-4): 1 mg/L | Anti-bacterial activity (MIC), strain SPN 16-2 ([7]; clinical isolate SPN 16-2): 2 mg/L | Anti-bacterial activity (MIC), strain SPN 16-4 ([7]; clinical isolate SPN 16-4): 2 mg/L | Anti-bacterial activity (MIC), strain EFM 15-1 ([8]; clinical isolate EFM 15-1): > 32 mg/L | Anti-bacterial activity (MIC), strain EFM 15-2 ([8]; clinical isolate EFM 15-2): > 32 mg/L | Anti-bacterial activity (MIC), strain EFM 15-3 ([8]; clinical isolate EFM 15-3): > 32 mg/L | Anti-bacterial activity (MIC), strain EFM 15-4 ([8]; clinical isolate EFM 15-4): > 32 mg/L | Anti-bacterial activity (MIC), strain EFM 15-6 ([8]; clinical isolate EFM 15-6): 1 mg/L | Anti-bacterial activity (MIC), strain EFA 15-1 ([9]; clinical isolate EFA 15-1): > 32 mg/L | Anti-bacterial activity (MIC), strain EFA 15-2 ([9]; clinical isolate EFA 15-2): > 32 mg/L | Anti-bacterial activity (MIC), strain EFA 15-3 ([9]; clinical isolate EFA 15-3): > 32 mg/L | Anti-bacterial activity (MIC), strain EFA 15-4 ([9]; clinical isolate EFA 15-4): > 32 mg/L | Anti-bacterial activity (MIC), strain EFA 15-5 ([9]; clinical isolate EFA 15-5): > 32 mg/L | Anti-bacterial activity (MIC), strain EFA 15-6 ([9]; clinical isolate EFA 15-6): > 32 mg/L | Anti-bacterial activity (MIC), strain EFA 15-9 ([9]; clinical isolate EFA 15-9): 8 mg/L | inhibition at 30 µM ([10]; Table 5, read-out: Inhibition of proliferation, Colorectal cancer HCT116): ≥ 30% | inhibition at 30 µM ([10]; read-out: HCT116 inhibition rate/%): 35% | inhibition at 30 µM [11]: 50% | inhibition at 30 µM [12]: 31% | inhibition at 30 µM [13]: 10%
